Measured values taken from patent US10238676B2, “Application of ginsenoside RG3 in preparing medicine for preventing and/or treating dementia, and medicine for treating dementia” (priority 2013, dated 2019).

What was measured:
[1] = cited from earlier work
[2] = cited from earlier work; remark: listed apart in the source
[3] = tested on: patients with mild or moderate Alzheimer's disease; assay: Self-controlled clinical research, MMSE/CDR/ADL, mild or moderate Alzheimer's disease (Test Example 5); assay type: in vivo, human
Description: 99 patients with mild or moderate Alzheimer's disease, among which 47 are male, 52 are female, all aged from 55 to 85 (73.5±7.6), MMSE score is […] (16.3±2.6) points.
Patients with AD all use the ginsenoside Rg3 naristillae once a day, 10 mg/ml each time, and keep using it for 12 weeks.
Examination is conducted once every four weeks before and after medication, and the medication method is as follows:
(1) MMSE screening of AD: examining patients' cognitive functions (orientation, memory, computational power, language competence, ability in applying visual-spatial etc.; (2) Examining patents' dementia degree using the clinical dementia rating (CDR); (3) examining patents' activities of daily living using the activity of daily living scale (ADL).
SPSS statistical software is adopted for examination results. T-test is adopted before and after treatment, and it is also adopted for the ginsenoside Rg3 naristillae group and the placebo control group.

[4] = tested on: intracerebral cholinergic nerve system of rat model with Alzheimer's disease; assay: AChE positive nerve fiber density of cortex and hippocampal formation, rat model with Alzheimer's disease (D-galactose + IBO); assay type: in vivo, Wistar rats; conditions: AD model rats, 6 weeks; for N Frontal lobe AchE positive nerve fiber density: Rg3 lotion (embodiment 7) on both sides of nose; for N Entorhinal cortex AchE positive nerve fiber density / N Occipital lobe AchE positive nerve fiber density / Parietal lobe AchE positive nerve fiber density / N Stratum lacunosum-moleculare AchE positive nerve fiber density / N Stratum moleculare of dentate gyrus AchE positive nerve fiber density / N Stratum oriens AchE positive nerve fiber density / N Stratum radiatum AchE positive nerve fiber density: Rg3 lotion topical; for N Stratum lacunosum-moleculare AchE positive nerve fiber density / N Stratum moleculare of dentate gyrus AchE positive nerve fiber density / N Stratum oriens AchE positive nerve fiber density / N Stratum radiatum AchE positive nerve fiber density: hippocampal formation
From the text: 60 Wistar rats each of which having the body weight of 300-500 g are randomly divided into 6 groups, with 10 in each group, and the groups are named a preliminary elder normal control group, a preliminary elder AD model group, a positive medicine Huperzine A group, and high-dose, medium-dose and low-dose of Ginsenoside Rg3 topical preparation groups according to different treatment methods, respectively. The rats are bred in separate cages, each holding 4-5 rats, with natural lighting and random drinking and feeding provided. Physiological saline is injected in the abdominal cavity and grain of each rat in the preliminary elder normal control group; Galactose intraperitoneal injection and IBO intracerebral injection are given to all rats in the preliminary elder AD model group, the positive medicine Huperzine A group, and the high-dose, medium-dose and low-dose Ginsenoside Rg3 topical preparation groups; while the rats in the Huperzine A group and the high-dose, medium-dose and low-dose of Ginsenoside Rg3 topical preparation groups are subjected to D-galactose injection for modeling, rat of each group is given Huperzine A 0.3 mg/kg/d and Ginsenoside Rg3 10, 5, 2.5 mg/kg/d respectively. Ginsenoside Rg3 is applied to both sides of the nose of each rat of Ginsenoside Rg3 topical preparation groups. All the rats are subjected to the medicines continuously for 6 weeks and then intracerebral bilateral Meynert nuclei injection is carried out. Reference is made to a rat cerebral stereotaxic atlas for Meynert nuclei localization, and localization coordinates are AP-0.8 mm, Late 2.6 mm and DV 8.2 mm During intracerebral injection, a rat is anesthetized with 3% pentobarbital sodium (30 mg/kg) and then immobilized to a cerebral stereotaxic apparatus, physiological saline dissolved IBO (injection 1 μl for each side containing 5 μg of IBO) or 1 μl normal saline is injected slowly into a Meynert nucleus, each side takes injection for 5 minutes, and needle retaining for 10 minutes, wherein all the rats are subjected to cerebral perfusion with 4% paraformaldehyde after modeling and are then immobilized for 24 hours, and the brain is put in a sucrose phosphate buffer until brain tissue blocks sink, the blocks are frozen in a incubator and serially sectioned to […] in thickness. The sections are subjected to acetycholinesterase (AChE) histochemical staining by methods recommended by Hedreen, et al. Observation is given to the frontal lobe, the parietal lobe, the occipital lobe and the entorhinal cortex (layer II) as well as parts in a hippocampal CA1 region of the hippocampal formation such as a stratum oriens, a stratum radiatum, a stratum lacunosum-moleculare and a stratum moleculare of dentate gyrus for observing their AChE positive nerve fiber densities, and the AChE positive nerve fiber densities are counted with a number of intersections of positive fibers with a standard grid by using a micrometer used for a microscope.
A significance level a is equal to 0.05.

[5] = tested on: rat model with Alzheimer's disease; assay: Channel-type water maze test, learning and memory of rat model with Alzheimer's disease; assay type: in vivo, Wistar rats; conditions: AD model rats
Description: Water maze pre-training is performed after feeding for 1 week under the stable condition of laboratory, 60 rats with similar body weights and good flexibility are selected, and are divided into 6 groups randomly, a normal control group, a sham operated control group, a model control group, and high-dose, medium-dose and low-dose ginsenoside Rg3 groups (10, 5, 2.5 mg/kg/d), wherein each group has 10 animals.
The molding method applying intraperitoneal injection of 0.96% D-galactose prepared by normal saline is applied to rats to make model rat, 5 mL/kg, once daily for 6 continuous weeks. The rat of sham operated control group are injected with equivalent normal saline. The rat groups of the model control group and high-dose, medium-dose and low-dose ginsenoside Rg3 groups are intracranially injected with IBO starting from the 43th day, and each side is slowly injected with 1 μL of IBO, the sham operated group's rats are injected with equivalent normal saline in the same encephalic region (for 4 continuous weeks). The normal control group's rat are without any processing and eat and drink normally. The rats of high-dose, medium-dose and low-dose ginsenoside Rg3 groups are administered intragastrically with ginsenoside Rg3 oral emulsion daily while molding, and are administered for 4 w (weeks) after molding.
The changes of animal behavioristics in each group are tested by channel-type water maze test, and the learning and memory abilities of rats are evaluated by number of entering blind ends and the time needed to reach the terminal. All test results are expressed in mean±standard deviation, and the intergroup difference is subjected to variance analysis by adopting SPSS10.0 statistical package.

[6] = Content of ginsenoside Rg3 in rat cerebrospinal fluid (BBB test, LC/MS/MS); assay type: in vivo, SD rats; conditions: rats, orally 10 mg/kg
Description: 1) Oral administration: an oral preparation of ginsenoside Rg3 is given to SD rats by lavage, the medicines of all high-dosage, medium-dosage and low-dosage groups are: 20, 10 and 5 mg/kg (the dosage above is pure dosage of Rg3)/bid, respectively, and each dosage group has 18 rats;
Rat cerebrospinal fluid is sucked after orally, topically and injection administering different preparations of ginsenoside Rg3 for 4 hours. […] Each rat is anesthetized with 10% chloral hydrate by intraperitoneal injection, the head of the rat is fixed by brain straight body positioning ear rods and front tooth rods, the occipital region is sheared and sterilized, and a longitudinal incision (about 2 cm) is cut along the posterior midline, and the muscles at the dorsal part of napex are bluntly separated with a pair of scissors. […]
The medicine concentrations in the rat cerebrospinal fluid are determined by LC/MS/MS methods. […]

[7] = 99 AD patients, Rg3 naristillae 10 mg/ml once a day
[8] = Test Example 5, versus before treatment
[9] = Rg3 oral emulsion (embodiment 17) intragastric, 10 mg/kg/d
[10] = Rg3 oral emulsion intragastric, 2.5 mg/kg/d
[11] = Rg3 oral emulsion intragastric, 5 mg/kg/d

CC(C)=CCC[C@](C)(O)[C@H]1CC[C@]2(C)[C@@H]1[C@H](O)C[C@@H]1[C@@]3(C)CC[C@H](O[C@@H]4O[C@H](CO)[C@@H](O)[C@H](O)[C@H]4O[C@@H]4O[C@H](CO)[C@@H](O)[C@H](O)[C@H]4O)C(C)(C)[C@@H]3CC[C@]12C [Ginsenoside Rg3, 20(R)-ginsenoside Rg3]
medicine in native form not absorbed and excreted through feces ([1]; animal pharmacokinetic experiments, oral preparations): about 80%
oral absorption percentage ([1]; oral): about 10.28%
lipid solubility and water solubility [2]: relatively poor
ADL score before treatment ([3]; 99 AD patients, baseline): 49.6 ± 8.2 points
CDR score before treatment ([3]; 99 AD patients, baseline): 2.1 ± 0.3 points
MMSE score before treatment ([3]; 99 AD patients, baseline): 16.3 ± 2.6 points
ADL score, treatment for 4 weeks [3, 7]: 48.2 ± 7.9 points
ADL score, treatment for 12 weeks [3, 7]: 42.5 ± 7.3 points
CDR score, treatment for 4 weeks [3, 7]: 1.9 ± 0.2 points
CDR score, treatment for 12 weeks [3, 7]: 1.5 ± 0.2 points
MMSE score, treatment for 4 weeks [3, 7]: 17.1 ± 1.9 points
MMSE score, treatment for 12 weeks [3, 7]: 19.8 ± 1.7 points
decrease of ADL score after treatment [3, 8]: 7.1 points
decrease of CDR score after treatment for 12 weeks [3, 8]: 0.6 points
increase of MMSE score after treatment for 12 weeks [3, 8]: 3.5 points
N Frontal lobe AchE positive nerve fiber density ([4]; 2.5 mg/kg/d): 122.7 ± 18.6^Δ 10^2 · mm^−2
N Frontal lobe AchE positive nerve fiber density ([4]; 5 mg/kg/d): 130.7 ± 20.8^Δ 10^2 · mm^−2
N Frontal lobe AchE positive nerve fiber density ([4]; 10 mg/kg/d): 143.7 ± 22.1^Δ 10^2 · mm^−2
N Entorhinal cortex AchE positive nerve fiber density ([4]; 2.5 mg/kg/d): 130.2 ± 15.6 10^2 · mm^−2
N Occipital lobe AchE positive nerve fiber density ([4]; 2.5 mg/kg/d): 145.2 ± 9.2^ΔΔ** 10^2 · mm^−2
Parietal lobe AchE positive nerve fiber density ([4]; 2.5 mg/kg/d): 162.9 ± 22.0^#** 10^2 · mm^−2
N Entorhinal cortex AchE positive nerve fiber density ([4]; 5 mg/kg/d): 142.6 ± 11.9 10^2 · mm^−2
N Occipital lobe AchE positive nerve fiber density ([4]; 5 mg/kg/d): 160.2 ± 10.2^ΔΔ** 10^2 · mm^−2
Parietal lobe AchE positive nerve fiber density ([4]; 5 mg/kg/d): 170.9 ± 21.2^#** 10^2 · mm^−2
N Entorhinal cortex AchE positive nerve fiber density ([4]; 10 mg/kg/d): 161.1 ± 18.3^ΔΔ**° 10^2 · mm^−2
N Occipital lobe AchE positive nerve fiber density ([4]; 10 mg/kg/d): 167.2 ± 12.9^ΔΔ**° 10^2 · mm^−2
Parietal lobe AchE positive nerve fiber density ([4]; 10 mg/kg/d): 183.9 ± 24.9^#**° 10^2 · mm^−2
N Stratum lacunosum-moleculare AchE positive nerve fiber density ([4]; 2.5 mg/kg/d): 77.2 ± 9.1^ΔΔ** 10^2 · mm^−2
N Stratum moleculare of dentate gyrus AchE positive nerve fiber density ([4]; 2.5 mg/kg/d): 119.8 ± 12.4 10^2 · mm^−2
N Stratum oriens AchE positive nerve fiber density ([4]; 2.5 mg/kg/d): 140.1 ± 20.5^Δ 10^2 · mm^−2
N Stratum radiatum AchE positive nerve fiber density ([4]; 2.5 mg/kg/d): 122.4 ± 14.4^#** 10^2 · mm^−2
N Stratum lacunosum-moleculare AchE positive nerve fiber density ([4]; 5 mg/kg/d): 84.2 ± 10.9^ΔΔ** 10^2 · mm^−2
N Stratum moleculare of dentate gyrus AchE positive nerve fiber density ([4]; 5 mg/kg/d): 131.5 ± 14.7 10^2 · mm^−2
N Stratum oriens AchE positive nerve fiber density ([4]; 5 mg/kg/d): 153.0 ± 22.1^Δ 10^2 · mm^−2
N Stratum radiatum AchE positive nerve fiber density ([4]; 5 mg/kg/d): 135.1 ± 23.9^#** 10^2 · mm^−2
N Stratum lacunosum-moleculare AchE positive nerve fiber density ([4]; 10 mg/kg/d): 99.2 ± 17.3^Δ 10^2 · mm^−2
N Stratum moleculare of dentate gyrus AchE positive nerve fiber density ([4]; 10 mg/kg/d): 142.7 ± 11.9 10^2 · mm^−2
N Stratum oriens AchE positive nerve fiber density ([4]; 10 mg/kg/d): 171.1 ± 16.9^Δ 10^2 · mm^−2
N Stratum radiatum AchE positive nerve fiber density ([4]; 10 mg/kg/d): 143.2 ± 20.5^ΔΔ 10^2 · mm^−2
Error times [5, 9]: 1.01 ± 0.41 time
Swimming out time [5, 9]: 12.26 ± 3.26 s
Error times [5, 10]: 1.82 ± 0.43 time
Swimming out time [5, 10]: 32.26 ± 3.21 s
Error times [5, 11]: 1.10 ± 0.44 time
Swimming out time [5, 11]: 19.26 ± 3.23 s
Ginsenoside Rg3 in cerebrospinal fluid sample (FIG. 2C chromatogram) [6]: 10.8 ng/g
